Assay results from patent US12018021B2 (UCB Biopharma SRL, priority 2018, dated 2024).
pIC50: −log10 of the molar value.

target: IgE-Tb / sFcεRIα-Y131A-AF488 (Homo sapiens, UniProt P01854, N146Q/N252Q); experiment: IgE-Tb / sFcεRIα-Y131A-AF488 FRET assay (protocol for examples 234 to 501); type: binding; details: examples 234 to 501: compound with IgE-Tb 30 minutes before sFcεRIα-Y131A-AF488, incubated 18 hours at room temperature; read-out: Y131A FRET IC50 range
In short: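 Compounds (10-point 3-fold series, top usually 10 μM, 2% DMSO) preincubated 30 min with 5 nM IgE-Tb, then 25 nM sFcεRIα-Y131A-AF488 added; 18 h at room temperature in the dark. TR-FRET ratio 520/490 nm after 337 nm excitation, background-subtracted; IC50 by four-parameter logistic fit.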

IgE-Tb / sFcεRIα-Y131A-AF488, sequence (P01854 whole entry N146Q/N252Q): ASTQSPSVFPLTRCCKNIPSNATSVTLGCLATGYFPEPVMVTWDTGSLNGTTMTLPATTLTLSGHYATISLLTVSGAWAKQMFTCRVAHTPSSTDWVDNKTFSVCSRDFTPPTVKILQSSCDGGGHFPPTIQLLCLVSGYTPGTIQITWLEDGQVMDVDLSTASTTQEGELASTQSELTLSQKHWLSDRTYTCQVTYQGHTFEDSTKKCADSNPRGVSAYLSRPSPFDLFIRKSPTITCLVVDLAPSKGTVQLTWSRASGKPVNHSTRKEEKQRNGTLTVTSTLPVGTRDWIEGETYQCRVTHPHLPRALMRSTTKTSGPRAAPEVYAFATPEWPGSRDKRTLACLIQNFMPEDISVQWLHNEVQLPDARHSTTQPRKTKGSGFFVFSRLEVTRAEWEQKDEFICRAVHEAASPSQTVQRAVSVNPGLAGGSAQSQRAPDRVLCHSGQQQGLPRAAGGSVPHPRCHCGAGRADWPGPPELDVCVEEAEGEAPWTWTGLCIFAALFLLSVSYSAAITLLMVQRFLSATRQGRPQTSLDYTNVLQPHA

| SMILES | pIC50 |
| --- | --- |
| C[C@H]1C[C@@H]1C(=O)Nc1sc2c(c1C(=O)NC[C@H]1C[C@H]1F)C[C@@H](n1cnnc1Nc1cc(C(F)F)nn1C)CC2 [Example 443, (5S)-5-[3-[[5-(difluoromethyl)-2-methylpyrazol-3-yl]amino]-1,2,4-triazol-4-yl]-N-[[(1R,2R)-2-fluorocyclopropyl]methyl]-2-[[(1S,2S)-2-methylcyclopropanecarbonyl]amino]-4,5,6,7-tetrahydro-1-benzothiophene-3-carboxamide] | > 6.00 |
| Cn1nc(C(F)(F)F)cc1Nc1nncn1[C@H]1CCc2sc(NC(=O)[C@H]3C[C@H]3F)c(C(=O)NCC3CC3)c2C1 [Example 312, (5S)—N-(cyclopropylmethyl)-2-[[(1R,2R)-2-fluorocyclopropanecarbonyl]amino]-5-[3-[[2-methyl-5-(trifluoromethyl)pyrazol-3-yl]amino]-1,2,4-triazol-4-yl]-4,5,6,7-tetrahydrobenzothiophene-3-carboxamide] | > 6.00 |
| Cn1nc(C(F)(F)F)cc1Nc1nncn1[C@H]1CCc2sc(NC(=O)[C@H]3C[C@H]3F)c(C(=O)NC[C@H]3C[C@H](F)C3)c2C1 (mixture of isomers) [Example 400, (5S)—N-[trans-(3-fluorocyclobutyl)methyl]-2-[[(1R,2R)-2-fluorocyclopropanecarbonyl]amino]-5-[3-[[2-methyl-5-(trifluoromethyl)pyrazol-3-yl]amino]-1,2,4-triazol-4-yl]-4,5,6,7-tetrahydro-1-benzothiophene-3-carboxamide] | > 6.00 |
| Cn1nc(OC(F)F)cc1Nc1nncn1[C@H]1CCc2sc(NC(=O)[C@H]3C[C@H]3F)c(C(=O)NCC3CC3)c2C1 (mixture of isomers) [Example 348, (5S)—N-(cyclopropylmethyl)-5-[3-[[5-(difluoromethoxy)-2-methylpyrazol-3-yl]amino]-1,2,4-triazol-4-yl]-2-[[(1RS,2RS)-2-fluorocyclopropanecarbonyl]amino]-4,5,6,7-tetrahydro-1-benzothiophene-3-carboxamide] | > 6.00 |
| Cc1nc(F)ccc1Nc1nncn1[C@H]1CCc2sc(NC(=O)C3CC3)c(C(=O)NCC3CC3)c2C1 [Example 424, (5S)-2-(cyclopropanecarbonylamino)-N-(cyclopropylmethyl)-5-[3-[(6-fluoro-2-methyl-3-pyridyl)amino]-1,2,4-triazol-4-yl]-4,5,6,7-tetrahydrobenzothiophene-3-carboxamide] | > 6.00 |
| Cc1nc(C(F)(F)F)ccc1Nc1nncn1[C@H]1CCc2sc(NC(=O)C3CC3)c(C(=O)NCC3CC3)c2C1 [Example 303, (5S)-2-(cyclopropanecarbonylamino)-N-(cyclopropylmethyl)-5-[3-[[2-methyl-6-(trifluoromethyl)-3-pyridyl]amino]-1,2,4-triazol-4-yl]-4,5,6,7-tetrahydrobenzothiophene-3-carboxamide] | > 6.00 |
| Cn1nc(C(F)F)cc1Nc1nncn1[C@H]1CCc2sc(NC(=O)C3CC3)c(C(=O)NC[C@H]3CC3(F)F)c2C1 (single isomer, unassigned) [Example 382] | > 6.00 |
| O=C(NCC1CC1)c1c(NC(=O)C2CC2)sc2c1C[C@@H](n1cnnc1Nc1ccc(C(F)(F)F)nc1)CC2 [Example 427, (5S)-2-(cyclopropanecarbonylamino)-N-(cyclopropylmethyl)-5-[3-[[6-(trifluoromethyl)-3-pyridyl]amino]-1,2,4-triazol-4-yl]-4,5,6,7-tetrahydrobenzothiophene-3-carboxamide] | > 6.00 |
| CCOC(=O)c1c(NC(=O)[C@H]2CC23CC3)sc2c1C[C@@H](n1cnnc1Nc1cc(C(F)F)nn1C)CC2 (single isomer, unassigned) [Example 417] | > 6.00 |
| Cc1nscc1Nc1nncn1[C@H]1CCc2sc(NC(=O)C3CC34CC4)c(C(=O)NCC3CC3)c2C1 (stereo partly drawn) [Example 329, (5S)—N-(cyclopropylmethyl)-5-[3-[(3-methyl-1,2-thiazol-4-yl)amino]-1,2,4-triazol-4-yl]-2-(spiro[2.2]pentane-2-carbonylamino)-4,5,6,7-tetrahydro-1-benzothiophene-3-carboxamide] | > 6.00 |
| Cn1nc(OC(F)F)cc1Nc1nncn1[C@H]1CCc2sc(NC(=O)[C@H]3C[C@H](F)C3)c(C(=O)NC[C@H]3C[C@H]3F)c2C1 [Example 482, (5S)-5-[3-[[5-(difluoromethoxy)-2-methylpyrazol-3-yl]amino]-1,2,4-triazol-4-yl]-2-[trans-(3-fluorocyclobutanecarbonyl)amino]-N-[[(1R,2R)-2-fluorocyclopropyl]methyl]-4,5,6,7-tetrahydro-1-benzothiophene-3-carboxamide] | > 6.00 |
| Cn1nc(C(F)F)cc1Nc1nncn1[C@H]1CCc2sc(NC(=O)[C@H]3CC34CC4)c(C(=O)N[C@@H]3CC34CC4)c2C1 [Example 415, (5S)-5-[3-[[5-(difluoromethyl)-2-methyl-pyrazol-3-yl]amino]-1,2,4-triazol-4-yl]-2-[[(2S)-spiro[2.2]pentane-2-carbonyl]amino]-N-[(2R)-spiro[2.2]pentan-2-yl]-4,5,6,7-tetrahydrobenzothiophene-3-carboxamide] | > 6.00 |
| Cn1nc(C(F)F)cc1Nc1nncn1[C@H]1CCc2sc(NC(=O)C3CC(F)(F)C3)c(C(=O)NC[C@H]3C[C@H]3F)c2C1 [Example 479, (5S)-2-[(3,3-difluorocyclobutanecarbonyl)amino]-5-[3-[[5-(difluoromethyl)-2-methylpyrazol-3-yl]amino]-1,2,4-triazol-4-yl]-N-[[(1R,2R)-2-fluorocyclopropyl]methyl]-4,5,6,7-tetrahydro-1-benzothiophene-3-carboxamide] | > 6.00 |
| Cn1nc(OC(F)F)cc1Nc1nncn1[C@H]1CCc2sc(NC(=O)[C@H]3C[C@@H]3F)c(C(=O)NC[C@H]3CC3(F)F)c2C1 (single isomer, unassigned) [Example 374] | > 6.00 |
| CCOc1cc(Nc2nncn2[C@H]2CCc3sc(NC(=O)[C@H]4C[C@@H]4F)c(C(=O)NCC4CC4)c3C2)n(C)n1 [Example 310, (5S)—N-(cyclopropylmethyl)-5-[3-[(5-ethoxy-2-methyl-pyrazol-3-yl)amino]-1,2,4-triazol-4-yl]-2-[[(1R,2S)-2-fluorocyclopropanecarbonyl]amino]-4,5,6,7-tetrahydrobenzothiophene-3-carboxamide] | > 6.00 |
| O=C(NCC1CC1)c1c(NC(=O)C2CC2)sc2c1C[C@@H](n1cnnc1Nc1ccnc(Cl)c1)CC2 [Example 431, (5S)-5-[3-[(2-chloro-4-pyridyl)amino]-1,2,4-triazol-4-yl]-2-(cyclopropanecarbonylamino)-N-(cyclopropylmethyl)-4,5,6,7-tetrahydrobenzothiophene-3-carboxamide] | > 6.00 |
| Cn1nc(C(F)(F)F)cc1Nc1nncn1[C@H]1CCc2sc(NC(=O)[C@H]3C[C@H]3F)c(C(=O)N[C@@H]3CC34CC4)c2C1 (single isomer, unassigned) [Example 393] | > 6.00 |
| Cn1nc(OC(F)F)cc1Nc1nncn1[C@H]1CCc2sc(NC(=O)[C@H]3C[C@@H]3F)c(C(=O)N[C@H]3CC34CC4)c2C1 (relative stereo) [Example 376, (5S)-5-[3-[[5-(difluoromethoxy)-2-methylpyrazol-3-yl]amino]-1,2,4-triazol-4-yl]-2-[[(1R,2S)-2-fluorocyclopropanecarbonyl]amino]-N-[(2R*)-spiro[2.2]pentan-2-yl]-4,5,6,7-tetrahydro-1-benzothiophene-3-carboxamide (* or S)] | > 6.00 |
| COc1cc(Nc2nncn2[C@H]2CCc3sc(NC(=O)[C@@H]4CC45CC5)c(C(=O)NCC4CC4)c3C2)n(C)n1 (relative stereo) [Example 455, (5S)—N-(cyclopropylmethyl)-5-[3-[(5-methoxy-2-methyl-pyrazol-3-yl)amino]-1,2,4-triazo-4-yl]-2-[[(2R*)-spiro[2.2]pentane-2-carbonyl]amino]-4,5,6,7-tetrahydrobenzothiophene-3-carboxamide (* or S)] | > 6.00 |
| Cc1c(Nc2nncn2[C@H]2CCc3sc(NC(=O)C4CC4)c(C(=O)NCC4CC4)c3C2)cccc1S(C)(=N)=O (mixture of isomers) [Example 235, (5S)-2-cyclopropaneamido-N-(cyclopropylmethyl)-5-[3-({3-[imino(methyl)oxo-lambda6-sulfanyl]-2-methylphenyl}amino)-4H-1,2,4-triazol-4-yl]-4,5,6,7-tetrahydro-1-benzothiophene-3-carboxamide] | > 6.00 |
| Cn1nc(-c2ncco2)cc1Nc1nncn1[C@H]1CCc2sc(NC(=O)C3CC3)c(C(=O)NCC3CC3)c2C1 [Example 265, (5S)-2-(cyclopropanecarbonylamino)-N-(cyclopropylmethyl)-5-[3-[(2-methyl-5-oxazol-2-yl-pyrazol-3-yl)amino]-1,2,4-triazol-4-yl]-4,5,6,7-tetrahydrobenzothiophene-3-carboxamide] | > 6.00 |
| Cn1nc(C(F)F)cc1Nc1nncn1[C@H]1CCc2sc(NC(=O)[C@H]3CC34CC4)c(C(=O)N[C@H]3C[C@H](F)C3)c2C1 [Example 405, (5S)-5-[3-[[5-(Difluoromethyl)-2-methylpyrazol-3-yl]amino]-1,2,4-triazol-4-yl]-N-(trans-3-fluorocyclobutyl)-2-[[(2S)-spiro[2.2]pentane-2-carbonyl]amino]-4,5,6,7-tetrahydro-1-benzothiophene-3-carboxamide] | > 6.00 |
| Cn1nc(C(F)F)cc1Nc1nncn1[C@H]1CCc2sc(NC(=O)[C@H]3C[C@H]3F)c(C(=O)NCC3CC3)c2C1 (mixture of isomers) [Example 361, (5S)—N-(cyclopropylmethyl)-5-[3-[[5-(difluoromethyl)-2-methylpyrazol-3-yl]amino]-1,2,4-triazol-4-yl]-2-[[(1RS,2RS)-2-fluorocyclopropanecarbonyl]amino]-4,5,6,7-tetrahydro-1-benzothiophene-3-carboxamide] | > 6.00 |
